The source made the active and inactive calls.
What was measured:
[1] = biological target: Aryl hydrocarbon receptor (Homo sapiens, UniProt P35869); test: Luminescence-based cell-based high throughput dose response assay for activators of the Aryl Hydrocarbon Receptor (AHR). [Related pubchem assays: 2796 (Primary screen (AHR activators in singlicate)), 2845 (Confirmation screen (AHR activators in triplicate)), 434939 (Counterscreen (PXR activators in triplicate)), 2804 (Summary (AHR activators))]; type: ADME
[2] = Luminescent dose response cell-based high throughput screening assay for inhibitors of the Janus kinase 2 mutant JAK2V617F. [Related pubchem assays: 1446 (Primary screen.), 1521 (Confirmation assay.), 1486 (Counter screen.)]; type: functional
[3] = Luminescence Cell-Based Dose Response HTS to Identify Inhibitors of 5'UTR Stem-Loop Driven Prion Protein mRNA Translation in H4 Neuroglioblastoma Cells. [Related pubchem assays: 1827 (Project Summary), 1813 (Primary HTS)]; type: functional
[4] = biological target: Luciferin 4-monooxygenase (Photinus pyralis, UniProt P08659); test: firefly luciferase enzyme inhibitors, dose response, biochemical, luminescence (AID 1891)
[5] = Luminescence Cell-Based Dose Confirmation HTS to Identify Inhibitors of Platelet Dense Granule Release. [Related pubchem assays: 1663 (Primary HTS), 1678 (Summary of Project)]; type: functional
[6] = biological target: T1, Calpain-2 catalytic subunit (Sus scrofa, UniProt P43367); test: pig calpain II inhibitor potency, dose response, biochemical, fluorogenic peptide substrate (AID 1420); type: functional
T1 sequence (P43367 whole entry): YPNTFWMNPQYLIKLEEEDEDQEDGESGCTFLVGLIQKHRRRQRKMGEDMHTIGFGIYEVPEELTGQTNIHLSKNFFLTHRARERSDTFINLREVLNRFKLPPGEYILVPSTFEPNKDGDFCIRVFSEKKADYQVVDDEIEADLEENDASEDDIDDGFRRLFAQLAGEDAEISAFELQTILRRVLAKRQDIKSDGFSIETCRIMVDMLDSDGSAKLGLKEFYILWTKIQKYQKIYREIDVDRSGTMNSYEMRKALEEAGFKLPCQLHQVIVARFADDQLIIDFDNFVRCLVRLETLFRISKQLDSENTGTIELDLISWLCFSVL

[7] = biological target: T2, Replicative DNA helicase DnaB (Mycobacterium tuberculosis, UniProt P9WMR3); test: DnaB intein splicing inhibitors, dose response, biochemical, cell-free fluorescence (AID 449749); type: functional
T2 sequence (P9WMR3 whole entry): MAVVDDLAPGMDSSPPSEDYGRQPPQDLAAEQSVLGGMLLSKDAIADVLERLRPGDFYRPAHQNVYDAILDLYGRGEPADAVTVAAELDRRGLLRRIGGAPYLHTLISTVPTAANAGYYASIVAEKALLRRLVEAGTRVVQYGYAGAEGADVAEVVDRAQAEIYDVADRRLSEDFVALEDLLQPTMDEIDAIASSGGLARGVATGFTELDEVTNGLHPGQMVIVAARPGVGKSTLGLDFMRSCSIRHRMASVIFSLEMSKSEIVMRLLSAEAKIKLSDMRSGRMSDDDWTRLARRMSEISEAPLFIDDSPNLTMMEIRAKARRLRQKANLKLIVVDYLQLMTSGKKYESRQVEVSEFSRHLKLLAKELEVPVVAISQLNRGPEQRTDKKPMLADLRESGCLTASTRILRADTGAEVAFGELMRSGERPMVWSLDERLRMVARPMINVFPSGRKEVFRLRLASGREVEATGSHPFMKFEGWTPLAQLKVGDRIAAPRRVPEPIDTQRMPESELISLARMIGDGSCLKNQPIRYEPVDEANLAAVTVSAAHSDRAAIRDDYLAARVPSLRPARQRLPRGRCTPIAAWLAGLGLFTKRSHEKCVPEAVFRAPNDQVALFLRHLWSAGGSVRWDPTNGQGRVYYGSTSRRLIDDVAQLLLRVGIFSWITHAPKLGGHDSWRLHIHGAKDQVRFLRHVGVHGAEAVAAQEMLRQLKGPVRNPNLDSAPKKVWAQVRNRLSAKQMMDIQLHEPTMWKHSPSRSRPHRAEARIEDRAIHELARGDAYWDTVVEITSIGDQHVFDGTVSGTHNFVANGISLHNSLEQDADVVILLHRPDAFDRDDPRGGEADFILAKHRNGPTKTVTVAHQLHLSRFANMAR

[8] = biological target: T3, Protein RecA (Mycobacterium tuberculosis, UniProt P9WHJ3); test: Fluorescence Cell-Free Homogeneous Dose Retest to Identify Inhibitors of RecA-Intein Splicing Activity. [Related pubchem assays (depositor defined):AID2097, AID2223, AID489010, AID492950]; type: functional
T3 sequence (P9WHJ3 whole entry): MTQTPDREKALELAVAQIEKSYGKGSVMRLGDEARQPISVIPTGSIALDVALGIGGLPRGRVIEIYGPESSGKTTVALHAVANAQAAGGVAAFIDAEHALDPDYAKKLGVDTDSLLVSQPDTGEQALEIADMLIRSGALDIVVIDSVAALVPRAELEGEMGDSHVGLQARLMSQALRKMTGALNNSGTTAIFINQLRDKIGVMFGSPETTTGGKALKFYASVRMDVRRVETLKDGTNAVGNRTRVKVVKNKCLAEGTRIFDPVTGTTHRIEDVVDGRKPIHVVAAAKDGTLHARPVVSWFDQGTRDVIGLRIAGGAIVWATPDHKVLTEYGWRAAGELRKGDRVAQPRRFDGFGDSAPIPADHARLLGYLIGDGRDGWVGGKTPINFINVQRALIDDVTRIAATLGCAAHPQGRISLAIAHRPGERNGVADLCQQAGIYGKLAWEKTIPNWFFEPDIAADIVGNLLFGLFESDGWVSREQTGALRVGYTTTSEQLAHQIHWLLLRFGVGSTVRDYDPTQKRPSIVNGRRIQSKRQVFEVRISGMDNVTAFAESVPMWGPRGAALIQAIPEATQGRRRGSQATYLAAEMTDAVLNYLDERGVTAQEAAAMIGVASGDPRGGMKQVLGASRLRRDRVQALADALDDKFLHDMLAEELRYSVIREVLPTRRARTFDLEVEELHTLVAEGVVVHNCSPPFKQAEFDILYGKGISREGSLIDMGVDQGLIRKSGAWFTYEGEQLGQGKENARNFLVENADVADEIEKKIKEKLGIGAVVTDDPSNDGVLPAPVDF

[9] = test system: INS1; test: beta cell apoptosis inhibitors, cytokine rescue, dose response, luminescence, retest (AID 449756); type: functional, cell-based; details: Rattus norvegicus;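 also: cell death triggered by IL-1 beta plus TNF-alpha plus IFN-gamma mixture; protective hits raise ATP signal compared with cytokine alone wells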
[10] = HeLa cell cytotoxicity, dose response, cytotoxicity control for MgcRacGAP inhibitor project (AID 624300); type: functional
[11] = biological target: T4, Rac GTPase-activating protein 1 (Homo sapiens, UniProt Q9H0H5); test: MgcRacGAP GTPase-activating activity inhibitors, confirmation, biochemical, ADP Hunter fluorescence, primary and confirmatory (AID 624330); type: functional
T4 sequence (Q9H0H5 whole entry): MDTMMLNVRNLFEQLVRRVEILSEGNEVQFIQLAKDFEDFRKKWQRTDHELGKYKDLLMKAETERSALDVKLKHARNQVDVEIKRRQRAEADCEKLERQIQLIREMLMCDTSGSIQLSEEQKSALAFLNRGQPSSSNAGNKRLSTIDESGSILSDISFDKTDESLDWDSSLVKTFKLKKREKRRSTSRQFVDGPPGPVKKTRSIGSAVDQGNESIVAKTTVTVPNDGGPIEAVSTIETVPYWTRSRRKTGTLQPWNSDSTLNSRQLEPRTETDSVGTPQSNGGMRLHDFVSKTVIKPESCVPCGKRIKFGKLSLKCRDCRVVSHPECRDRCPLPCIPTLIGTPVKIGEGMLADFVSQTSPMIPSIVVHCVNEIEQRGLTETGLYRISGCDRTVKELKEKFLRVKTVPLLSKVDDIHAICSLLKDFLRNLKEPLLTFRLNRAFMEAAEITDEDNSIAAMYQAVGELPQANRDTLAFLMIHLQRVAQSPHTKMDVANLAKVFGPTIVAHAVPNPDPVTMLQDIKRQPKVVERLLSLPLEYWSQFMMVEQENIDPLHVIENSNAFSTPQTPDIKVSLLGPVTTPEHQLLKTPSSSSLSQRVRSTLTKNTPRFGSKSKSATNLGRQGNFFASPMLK

[12] = HIV-1 Env-mediated cell fusion inhibitors, dose response, CCR5-tropic Env (AID 2279); type: functional
[13] = biological target: Heat shock protein HSP 90-alpha (Homo sapiens, UniProt P07900); test: Luminescence-based dose response biochemical high throughput screening assay for inhibitors of the Heat Shock Protein 90 (HSP90). [Related pubchem assays: 1831 (Summary AID.), 1846 (Confirmation screen.), 1789 (Primary screen.)]
[14] = biological target: FAD-linked sulfhydryl oxidase ALR (Homo sapiens, UniProt P55789); test: inhibitors of human ALR sulfhydryl oxidase, dose response, biochemical, H2O2 detection, luminescence, cherry-pick (AID 493248)
[15] = test system: Danio rerio; test: In Vivo Angiogenesis Dose-Response Confirmation. [Related pubchem assays: 732 (Assay preceding this confirmatory assay.)]; type: functional, organism-based
[16] = biological target: Voltage-gated inwardly rectifying potassium channel KCNH2 (Homo sapiens, UniProt Q12809); details: Potency;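 also: confirmatory quantitative high-throughput screen measuring inhibition of hERG channel activity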
Sequence of Voltage-gated inwardly rectifying potassium channel KCNH2 (Q12809 whole entry): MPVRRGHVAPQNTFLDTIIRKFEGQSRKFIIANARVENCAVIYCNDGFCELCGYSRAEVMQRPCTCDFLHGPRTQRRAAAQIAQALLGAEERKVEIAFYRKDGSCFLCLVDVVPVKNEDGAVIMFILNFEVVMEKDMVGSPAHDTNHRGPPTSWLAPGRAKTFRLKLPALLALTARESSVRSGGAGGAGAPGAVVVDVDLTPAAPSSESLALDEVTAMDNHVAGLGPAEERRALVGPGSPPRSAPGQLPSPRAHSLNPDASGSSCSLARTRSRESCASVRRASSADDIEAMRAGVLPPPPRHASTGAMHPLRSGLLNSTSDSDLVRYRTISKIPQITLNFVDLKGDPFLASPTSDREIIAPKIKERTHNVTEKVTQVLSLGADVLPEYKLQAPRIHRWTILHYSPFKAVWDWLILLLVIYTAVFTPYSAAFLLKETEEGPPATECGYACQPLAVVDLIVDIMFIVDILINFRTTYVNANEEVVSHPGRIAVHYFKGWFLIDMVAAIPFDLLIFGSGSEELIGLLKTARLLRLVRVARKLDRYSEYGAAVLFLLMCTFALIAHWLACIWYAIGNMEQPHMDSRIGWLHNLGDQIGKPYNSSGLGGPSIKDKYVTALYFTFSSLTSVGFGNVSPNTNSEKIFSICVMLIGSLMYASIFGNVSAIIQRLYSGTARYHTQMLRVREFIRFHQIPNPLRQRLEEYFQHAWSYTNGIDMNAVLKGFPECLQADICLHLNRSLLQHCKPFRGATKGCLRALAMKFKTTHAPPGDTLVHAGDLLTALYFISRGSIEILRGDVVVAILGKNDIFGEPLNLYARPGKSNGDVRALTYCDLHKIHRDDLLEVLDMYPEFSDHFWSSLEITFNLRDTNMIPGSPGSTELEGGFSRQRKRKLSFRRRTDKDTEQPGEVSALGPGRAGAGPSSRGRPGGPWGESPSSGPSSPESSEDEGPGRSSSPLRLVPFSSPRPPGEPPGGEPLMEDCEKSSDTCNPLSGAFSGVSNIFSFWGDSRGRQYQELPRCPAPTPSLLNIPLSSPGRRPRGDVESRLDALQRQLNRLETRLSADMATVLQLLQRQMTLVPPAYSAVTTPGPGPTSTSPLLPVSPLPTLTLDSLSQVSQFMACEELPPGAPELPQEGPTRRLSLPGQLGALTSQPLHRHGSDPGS

Sequence of Aryl hydrocarbon receptor (P35869 whole entry): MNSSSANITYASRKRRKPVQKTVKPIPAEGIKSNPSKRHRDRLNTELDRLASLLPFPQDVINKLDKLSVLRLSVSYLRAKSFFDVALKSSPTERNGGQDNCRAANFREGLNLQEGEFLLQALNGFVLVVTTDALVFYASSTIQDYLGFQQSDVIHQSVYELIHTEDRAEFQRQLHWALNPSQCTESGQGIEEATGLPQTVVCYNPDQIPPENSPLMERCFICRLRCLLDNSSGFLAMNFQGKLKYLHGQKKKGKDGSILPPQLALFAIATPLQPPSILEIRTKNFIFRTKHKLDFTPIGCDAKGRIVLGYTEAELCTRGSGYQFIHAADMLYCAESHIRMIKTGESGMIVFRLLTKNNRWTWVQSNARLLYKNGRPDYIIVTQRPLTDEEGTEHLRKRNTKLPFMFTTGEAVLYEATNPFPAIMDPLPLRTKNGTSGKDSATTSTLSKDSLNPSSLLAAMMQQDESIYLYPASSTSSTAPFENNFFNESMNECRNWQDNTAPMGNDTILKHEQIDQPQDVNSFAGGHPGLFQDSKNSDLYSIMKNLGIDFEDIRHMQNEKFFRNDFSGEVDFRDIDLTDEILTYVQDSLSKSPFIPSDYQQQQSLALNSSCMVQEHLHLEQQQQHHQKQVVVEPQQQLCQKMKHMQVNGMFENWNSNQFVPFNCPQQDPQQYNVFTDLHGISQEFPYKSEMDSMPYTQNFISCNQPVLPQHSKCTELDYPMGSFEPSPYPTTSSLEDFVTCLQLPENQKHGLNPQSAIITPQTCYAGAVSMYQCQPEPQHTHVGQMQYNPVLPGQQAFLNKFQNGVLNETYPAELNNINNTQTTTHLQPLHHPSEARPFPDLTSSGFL
Sequence of FAD-linked sulfhydryl oxidase ALR (P55789 whole entry): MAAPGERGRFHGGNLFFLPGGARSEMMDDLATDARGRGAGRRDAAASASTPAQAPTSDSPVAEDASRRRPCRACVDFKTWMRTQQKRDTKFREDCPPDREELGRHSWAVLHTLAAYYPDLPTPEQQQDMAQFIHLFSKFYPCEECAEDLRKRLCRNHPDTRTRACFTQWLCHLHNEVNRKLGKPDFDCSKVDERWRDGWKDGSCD
Sequence of Luciferin 4-monooxygenase (P08659 whole entry): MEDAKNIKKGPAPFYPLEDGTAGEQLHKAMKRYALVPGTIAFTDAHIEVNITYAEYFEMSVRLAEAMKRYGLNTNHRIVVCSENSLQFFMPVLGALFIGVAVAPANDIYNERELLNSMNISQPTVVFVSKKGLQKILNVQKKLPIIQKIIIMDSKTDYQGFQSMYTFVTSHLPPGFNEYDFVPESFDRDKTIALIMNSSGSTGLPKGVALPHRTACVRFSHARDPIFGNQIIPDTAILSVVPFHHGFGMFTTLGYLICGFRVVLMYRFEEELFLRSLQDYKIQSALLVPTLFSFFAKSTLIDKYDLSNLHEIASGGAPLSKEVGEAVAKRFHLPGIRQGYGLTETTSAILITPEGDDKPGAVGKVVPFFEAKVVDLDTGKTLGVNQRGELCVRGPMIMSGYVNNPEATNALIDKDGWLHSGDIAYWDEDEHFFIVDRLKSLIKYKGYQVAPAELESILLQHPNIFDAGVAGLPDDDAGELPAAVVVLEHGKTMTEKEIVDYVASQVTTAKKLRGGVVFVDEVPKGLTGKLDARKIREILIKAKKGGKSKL

Which EC50 [1] does the source give for `COCC(=O)Nc1nnc(-c2cccs2)s1` here?
Its EC50 is 6.26 µM (active).

For `O=C1/C(=N\c2ccc(O)cc2)C=C(O)c2ccccc21`, which IC50 [2] is on record?
The IC50 was 2.02 µM (active).

And the EC50 [3]?
The EC50 was > 120 µM (not active).

And the EC50 [4]?
Its EC50 is 3.81 µM (active).

And the EC50 [5]?
The EC50 was 4.34 µM (active).

And the IC50 [6]?
The IC50 was 5.1 µM (not active).

What about the AC50 [7] of the same compound?
Its AC50 is 3.88 µM (active).

And the EC50 [8]?
The EC50 was 3.57 µM (active).

And the AC50 [9]?
The AC50 was 6.8 µM (active).

What about the CC50 [10] of the same compound?
The CC50 was 100 µM (active).

What about the IC50 [11] of the same compound?
Its IC50 is 23.7 µM (active).

What does the source list for `COc1cc(/C=N/Nc2ccc(Cl)c(C(=O)O)c2)ccc1OC(=O)c1ccccc1F`?
IC50 [12]: 4.45 µM (active); IC50 [13]: 1.06 µM (active); AC50 [14]: 5.62 µM (active)

With `CN(C)c1ccc(/C=C2\C(=O)Nc3ccccc32)cc1` as the compound, how does the IC50 [15] read?
The IC50 was > 100 µM (not active).

And the AC50 [16]?
Its AC50 is 14.1 µM (inconclusive).

Source: ChEMBL document CHEMBL1201862, “PubChem BioAssay data set” (2004)
